Read-outs that look alike come from different tables or passages of the source.
Key:
Format in all cases: in vivo
[1] = tested on: barnyardgrass (Echinochloa crus-galli); assay: Test B pre/postemergence; details: Echinochloa crus-galli; for pest or weed control at 125 g/ha: 125 g ai/ha; for pest or weed control at 500 g/ha: 500 g ai/ha
How it was run: (§1)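 Visual rating, 0 (no effect) to 100 (complete control) versus controls, taken 13–15 days after treatment in greenhouse. Compounds formulated in non-phytotoxic solvent plus surfactant; pre: sprayed after seeding; post: plants at 1- to 4-leaf stage, 2–18 cm.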

[2] = tested on: wheat (Triticum aestivum); assay: Test B pre/postemergence; details: Triticum aestivum; for plant injury at 500 g/ha: 500 g ai/ha
How it was run: as §1

[3] = tested on: velvetleaf (Abutilon theophrasti); assay: Test B pre/postemergence; details: Abutilon theophrasti; for pest or weed control at 125 g/ha: 125 g ai/ha; for pest or weed control at 500 g/ha: 500 g ai/ha
How it was run: as §1

[4] = tested on: giant foxtail (Setaria faberii); assay: Test B pre/postemergence; details: Setaria faberi; for pest or weed control at 125 g/ha: 125 g ai/ha; for pest or weed control at 500 g/ha: 500 g ai/ha
How it was run: as §1

[5] = tested on: crabgrass (Digitaria sanguinalis); assay: Test B pre/postemergence; details: Digitaria sanguinalis; for pest or weed control at 125 g/ha: 125 g ai/ha; for pest or weed control at 500 g/ha: 500 g ai/ha
How it was run: as §1

[6] = tested on: cocklebur (Xanthium strumarium); assay: Test B pre/postemergence; details: Xanthium strumarium; for pest or weed control at 125 g/ha: 125 g ai/ha; for pest or weed control at 500 g/ha: 500 g ai/ha
How it was run: as §1

[7] = tested on: Surinam grass (Brachiaria decumbens); assay: Test B pre/postemergence; details: Urochloa decumbens; for pest or weed control at 125 g/ha: 125 g ai/ha; for pest or weed control at 500 g/ha: 500 g ai/ha
How it was run: as §1

[8] = tested on: pigweed (Amaranthus retroflexus); assay: Test B pre/postemergence; details: Amaranthus retroflexus; for pest or weed control at 125 g/ha: 125 g ai/ha; for pest or weed control at 500 g/ha: 500 g ai/ha
How it was run: as §1

[9] = tested on: corn (Zea mays); assay: Test B pre/postemergence; details: Zea mays
How it was run: as §1

[10] = tested on: morningglory (Ipomoea coccinea); assay: Test B pre/postemergence; details: Ipomoea; for pest or weed control at 125 g/ha: 125 g ai/ha; for pest or weed control at 500 g/ha: 500 g ai/ha
How it was run: as §1

[11] = tested on: lambsquarters (Chenopodium album); assay: Test B pre/postemergence; details: Chenopodium album; for pest or weed control at 125 g/ha: 125 g ai/ha; for pest or weed control at 500 g/ha: 500 g ai/ha
How it was run: as §1

[12] = tested on: rice (Oryza sativa); assay: Test B flooded paddy test; details: Oryza sativa, Flood, 1000 g ai/ha; scale 0 to 100; read-out: Plant response rating, Rice
How it was run: (§2)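 Visual injury scoring (0 = no effect, 100 = complete control) versus controls made 13 to 15 days after treatment in the greenhouse. Test species were grown in flooded paddy to the 2-leaf stage: rice, barnyardgrass, umbrella sedge, duck salad.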

[13] = tested on: barnyardgrass (Echinochloa crus-galli); assay: Test B flooded paddy test; details: Echinochloa crus-galli, Flood, 1000 g ai/ha; scale 0 (no effect) to 100 (complete control); read-out: Plant response rating, Barnyardgrass
How it was run: as §2

[14] = tested on: duck salad (Heteranthera limosa); assay: Test B flooded paddy test; details: Heteranthera limosa, Flood, 1000 g ai/ha; scale 0 to 100; read-out: Plant response rating, Ducksalad
How it was run: as §2

[15] = tested on: umbrella sedge (Cyperus difformis); assay: Test B flooded paddy test; details: Cyperus difformis, Flood, 1000 g ai/ha; scale 0 to 100; read-out: Plant response rating, Sedge, Umbrella
How it was run: as §2

[16] = tested on: wild oat (Avena fatua); assay: Test B postemergence; details: Avena fatua, post-emergence
How it was run: as §1

[17] = tested on: blackgrass (Alopecurus myosuroides); assay: Test B postemergence; details: Alopecurus myosuroides, post-emergence
How it was run: as §1

Compound: CNc1nc(C2CC2)nc(C(=O)OC)c1Br [Compound 5]
- pest or weed control at 125 g/ha ([1]; post-emergence, Postemergence, scale 0 to 100 (0 no effect, 100 complete control), read-out: Barnyardgrass plant response rating): 50%
- pest or weed control at 500 g/ha ([1]; post-emergence, Postemergence, scale 0 to 100, read-out: Plant response rating, Barnyardgrass): 90%
- pest or weed control at 125 g/ha ([1]; pre-emergence, Preemergence, scale 0 to 100 (0 no effect, 100 complete control), read-out: Plant response rating, Barnyardgrass): 10%
- pest or weed control at 500 g/ha ([1]; pre-emergence, Preemergence, scale 0 to 100 (0 no effect, 100 complete control), read-out: Barnyardgrass plant response rating): 30%
- plant injury at 125 g/ha ([2]; post-emergence, Postemergence, 125 g ai/ha, scale 0 to 100 (0 no effect, 100 complete control), read-out: Wheat plant response rating): 50%
- plant injury at 500 g/ha ([2]; post-emergence, Postemergence, scale 0 to 100, read-out: Plant response rating, Wheat): 60%
- plant injury at 500 g/ha ([2]; pre-emergence, Preemergence, scale 0 to 100 (0 no effect, 100 complete control), read-out: Wheat plant response rating): 50%
- pest or weed control at 125 g/ha ([3]; post-emergence, Postemergence, scale 0 to 100 (0 no effect, 100 complete control), read-out: Velvetleaf plant response rating): 70%
- pest or weed control at 500 g/ha ([3]; post-emergence, Postemergence, scale 0 to 100, read-out: Plant response rating, Velvetleaf): 90%
- pest or weed control at 125 g/ha ([3]; pre-emergence, Preemergence, scale 0 to 100 (0 no effect, 100 complete control), read-out: Plant response rating, Velvetleaf): 70%
- pest or weed control at 500 g/ha ([3]; pre-emergence, Preemergence, scale 0 to 100 (0 no effect, 100 complete control), read-out: Velvetleaf plant response rating): 90%
- pest or weed control at 125 g/ha ([4]; post-emergence, Postemergence, scale 0 to 100 (0 no effect, 100 complete control), read-out: Foxtail, Giant plant response rating): 40%
- pest or weed control at 500 g/ha ([4]; post-emergence, Postemergence, scale 0 to 100, read-out: Plant response rating, Foxtail, Giant): 50%
- pest or weed control at 125 g/ha ([4]; pre-emergence, Preemergence, scale 0 to 100 (0 no effect, 100 complete control), read-out: Plant response rating, Foxtail, Giant): 0%
- pest or weed control at 500 g/ha ([4]; pre-emergence, Preemergence, scale 0 to 100 (0 no effect, 100 complete control), read-out: Foxtail, Giant plant response rating): 10%
- pest or weed control at 125 g/ha ([5]; post-emergence, Postemergence, scale 0 to 100 (0 no effect, 100 complete control), read-out: Crabgrass plant response rating): 50%
- pest or weed control at 500 g/ha ([5]; post-emergence, Postemergence, scale 0 to 100, read-out: Plant response rating, Crabgrass): 90%
- pest or weed control at 125 g/ha ([5]; pre-emergence, Preemergence, scale 0 to 100 (0 no effect, 100 complete control), read-out: Plant response rating, Crabgrass): 20%
- pest or weed control at 500 g/ha ([5]; pre-emergence, Preemergence, scale 0 to 100 (0 no effect, 100 complete control), read-out: Crabgrass plant response rating): 70%
- pest or weed control at 125 g/ha ([6]; post-emergence, Postemergence, scale 0 to 100 (0 no effect, 100 complete control), read-out: Cocklebur plant response rating): 80%
- pest or weed control at 500 g/ha ([6]; post-emergence, Postemergence, scale 0 to 100, read-out: Plant response rating, Cocklebur): 100%
- pest or weed control at 125 g/ha ([6]; pre-emergence, Preemergence, scale 0 to 100 (0 no effect, 100 complete control), read-out: Plant response rating, Cocklebur): 70%
- pest or weed control at 500 g/ha ([6]; pre-emergence, Preemergence, scale 0 to 100 (0 no effect, 100 complete control), read-out: Cocklebur plant response rating): 80%
- pest or weed control at 125 g/ha ([7]; post-emergence, Postemergence, scale 0 to 100 (0 no effect, 100 complete control), read-out: Surinam Grass plant response rating): 50%
- pest or weed control at 500 g/ha ([7]; post-emergence, Postemergence, scale 0 to 100, read-out: Plant response rating, Surinam Grass): 80%
- pest or weed control at 125 g/ha ([7]; pre-emergence, Preemergence, scale 0 to 100 (0 no effect, 100 complete control), read-out: Plant response rating, Surinam Grass): 0%
- pest or weed control at 500 g/ha ([7]; pre-emergence, Preemergence, scale 0 to 100 (0 no effect, 100 complete control), read-out: Surinam Grass plant response rating): 10%
- pest or weed control at 125 g/ha ([8]; post-emergence, Postemergence, scale 0 to 100 (0 no effect, 100 complete control), read-out: Pigweed plant response rating): 90%
- pest or weed control at 500 g/ha ([8]; post-emergence, Postemergence, scale 0 to 100, read-out: Plant response rating, Pigweed): 100%
- pest or weed control at 125 g/ha ([8]; pre-emergence, Preemergence, scale 0 to 100 (0 no effect, 100 complete control), read-out: Plant response rating, Pigweed): 90%
- pest or weed control at 500 g/ha ([8]; pre-emergence, Preemergence, scale 0 to 100 (0 no effect, 100 complete control), read-out: Pigweed plant response rating): 90%
- plant injury at 125 g/ha ([9]; post-emergence, Postemergence, 125 g ai/ha, scale 0 to 100 (0 no effect, 100 complete control), read-out: Corn plant response rating): 30%
- Corn plant response rating (crop injury, 0 = no effect, 100 = complete kill) at 500 g/ha ([9]; post-emergence, Postemergence, 500 g ai/ha, scale 0 to 100): 90%
- Corn plant response rating (crop injury, 0 = no effect, 100 = complete kill) at 125 g/ha ([9]; pre-emergence, Preemergence, 125 g ai/ha, scale 0 to 100 (0 no effect, 100 complete control)): 0%
- plant injury at 500 g/ha ([9]; pre-emergence, Preemergence, 500 g ai/ha, scale 0 to 100 (0 no effect, 100 complete control), read-out: Corn plant response rating): 70%
- pest or weed control at 125 g/ha ([10]; post-emergence, Postemergence, scale 0 to 100 (0 no effect, 100 complete control), read-out: Morningglory plant response rating): 100%
- pest or weed control at 500 g/ha ([10]; post-emergence, Postemergence, scale 0 to 100, read-out: Plant response rating, Morningglory): 100%
- pest or weed control at 125 g/ha ([10]; pre-emergence, Preemergence, scale 0 to 100 (0 no effect, 100 complete control), read-out: Plant response rating, Morningglory): 70%
- pest or weed control at 500 g/ha ([10]; pre-emergence, Preemergence, scale 0 to 100 (0 no effect, 100 complete control), read-out: Morningglory plant response rating): 80%
- pest or weed control at 125 g/ha ([11]; post-emergence, Postemergence, scale 0 to 100 (0 no effect, 100 complete control), read-out: Lambsquarters plant response rating): 100%
- pest or weed control at 500 g/ha ([11]; post-emergence, Postemergence, scale 0 to 100, read-out: Plant response rating, Lambsquarters): 100%
- pest or weed control at 125 g/ha ([11]; pre-emergence, Preemergence, scale 0 to 100 (0 no effect, 100 complete control), read-out: Plant response rating, Lambsquarters): 90%
- pest or weed control at 500 g/ha ([11]; pre-emergence, Preemergence, scale 0 to 100 (0 no effect, 100 complete control), read-out: Lambsquarters plant response rating): 100%
- plant injury at 1000 g/ha [12]: 0%
- pest or weed control at 1000 g/ha [13]: 50%
- pest or weed control at 1000 g/ha [14]: 90%
- pest or weed control at 1000 g/ha [15]: 90%
- pest or weed control at 125 g/ha ([16]; 125 g ai/ha, scale 0 to 100 (0 no effect, 100 complete control), read-out: Oat, Wild plant response rating): 40%
- pest or weed control at 500 g/ha ([16]; 500 g ai/ha, scale 0 to 100, read-out: Plant response rating, Oat, Wild): 60%
- pest or weed control at 125 g/ha ([17]; 125 g ai/ha, scale 0 to 100 (0 no effect, 100 complete control), read-out: Blackgrass plant response rating): 70%
- pest or weed control at 500 g/ha ([17]; 500 g ai/ha, scale 0 to 100, read-out: Plant response rating, Blackgrass): 80%

Source: patent publication US8802597B2, “Herbicidal pyrimidines” (E I du Pont de Nemours and Company, priority 2003, dated 2014)
